Test results taken from article PMC11220827 (Frontiers in Pharmacology, 2024).

Biological target: T1, human thyroid peroxidase (hTPO) (Homo sapiens, UniProt P07202)
T1 sequence (P07202 19-933): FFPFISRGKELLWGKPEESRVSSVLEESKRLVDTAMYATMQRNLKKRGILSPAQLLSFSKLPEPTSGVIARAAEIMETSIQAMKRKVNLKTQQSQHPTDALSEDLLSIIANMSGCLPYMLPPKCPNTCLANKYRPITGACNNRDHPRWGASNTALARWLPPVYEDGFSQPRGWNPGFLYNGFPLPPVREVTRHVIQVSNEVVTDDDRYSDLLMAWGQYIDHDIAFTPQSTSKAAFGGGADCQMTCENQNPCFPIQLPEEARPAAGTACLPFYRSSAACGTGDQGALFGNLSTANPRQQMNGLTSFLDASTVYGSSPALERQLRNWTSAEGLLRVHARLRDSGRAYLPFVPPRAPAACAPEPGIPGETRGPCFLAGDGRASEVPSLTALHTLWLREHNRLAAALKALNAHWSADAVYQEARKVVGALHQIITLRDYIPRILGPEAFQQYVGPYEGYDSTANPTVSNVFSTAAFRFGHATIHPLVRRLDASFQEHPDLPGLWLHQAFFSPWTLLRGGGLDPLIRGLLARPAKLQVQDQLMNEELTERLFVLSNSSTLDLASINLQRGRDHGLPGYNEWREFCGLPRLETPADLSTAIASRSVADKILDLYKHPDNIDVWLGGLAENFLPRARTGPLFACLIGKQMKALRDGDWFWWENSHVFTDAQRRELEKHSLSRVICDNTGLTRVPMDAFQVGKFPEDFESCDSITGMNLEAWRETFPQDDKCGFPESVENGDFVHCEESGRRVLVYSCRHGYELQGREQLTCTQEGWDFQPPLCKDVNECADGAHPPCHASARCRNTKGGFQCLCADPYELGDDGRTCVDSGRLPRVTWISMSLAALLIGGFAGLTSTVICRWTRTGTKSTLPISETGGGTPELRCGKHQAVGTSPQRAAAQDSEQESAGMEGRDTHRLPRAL
Protocol: hTPO was derived from Nthy-ori 3-1 cells. Cell lysate containing hTPO in Glycine-NaOH buffer (pH
9.0) was incubated for 30 minutes at 37°C in the presence of serial dilutions of the compounds in
DMSO (1% compound stock in incubation mixture).
was measured on a Berthold luminometer.
Preincubation with rat liver S9 fraction
To assess the effect of metabolism on the activity of the test
compound for these assays, preincubations with rat liver S9 were performed.

O=c1c(-c2ccc(O)cc2)coc2cc(O)cc(O)c12 [Genistein, 5,7-DIHYDROXY-3-(4-HYDROXYPHENYL)-4-BENZOPYRONE]
LOEC for hTPO inhibition: 19 ± 8.9 µM
TPO LOEC, Inhibition: 19 µM
hTPO inhibition (thyroid) LOEC, +S9 (+S9 (preincubation with rat liver S9)): >−4.7 Log M
hTPO inhibition (thyroid) LOEC, −S9 (−S9): −4.7 Log M
